# Assay results taken from patent publication US6706740B2, “Fungicidal heterocyclic aromatic amides and their compositions, methods of use and preparation” (Dow AgroSciences LLC, priority 1999, dated 2004).
# Tested on: Septoria tritici—SEPTTR
# Assay: Leaf Blotch of Wheat, in vivo whole plant, 24 Hour Protectant
# Details: Zymoseptoria tritici, 24 h, 100 ppm spray, 24 hour protectant, wheat; control of fungal infection vs untreated plants; read-out: SEPTTR in vivo 1 Day Protectant
row,SMILES,pest or weed control at 100 ppm
1,COc1ccnc(C(=O)NC2CC(C)(C)C(OC(=O)c3cccc(Cl)n3)C(C)(C)C2)c1O (stereo not drawn) [Compound 269],25 to 74%

# Same assay, conditions: Zymoseptoria tritici, 24 h, 100 ppm spray, wheat, 24 hour protectant; control of fungal infection vs untreated plants; read-out: SEPTTR in vivo 1 Day Protectant
row,SMILES,pest or weed control at 100 ppm
1,COc1ccnc(C(=O)Nc2ccc(OC3CC(C)(C)OC(C)(C)C3)cc2)c1O [Compound 459],25 to 74%
2,COc1ccnc(C(=O)N[C@H]2COC(=O)[C@H](Cc3ccccc3)[C@@H](OC(C)=O)[C@H](C)OC2=O)c1O [Compound 385],25 to 74%
3,COc1ccnc(C(=O)N[C@H]2COC(=O)[C@H](Cc3ccccc3)[C@@H](OCC(C)C)[C@H](C)OC2=O)c1O [Compound 384],25 to 74%

# Tested on: Mycosphaerella graminicola (Septoria tritici—SEPTTR)
# Assay: In vitro fungal growth inhibition, Mycosphaerella graminicola (SEPTTR)
# Assay type: cell-based
# Details: Zymoseptoria tritici; 25 ppm in growth medium; read-out: SEPTTR in vitro Growth Inhibition
row,SMILES,inhibition at 25 ppm
1,COc1ccnc(C(=O)Nc2ccc(OC3CC(C)(C)OC(C)(C)C3)cc2)c1O [Compound 459],< 80%
2,COc1ccnc(C(=O)N[C@H]2COC(=O)[C@H](Cc3ccccc3)[C@@H](OC(C)=O)[C@H](C)OC2=O)c1O [Compound 385],> 80%
3,COc1ccnc(C(=O)NC2CC(C)(C)C(OC(=O)c3cccc(Cl)n3)C(C)(C)C2)c1O (stereo not drawn) [Compound 269],< 80%
4,COc1ccnc(C(=O)N[C@H]2COC(=O)[C@H](Cc3ccccc3)[C@@H](OCC(C)C)[C@H](C)OC2=O)c1O [Compound 384],> 80%

# Tested on: Puccinia recondita—PUCCRT
# Assay: Brown Rust of Wheat, in vivo whole plant, 24 Hour Protectant
# Details: Puccinia; 100 ppm spray, 24 hour protectant, wheat; control of fungal infection vs untreated plants; read-out: PUCCRT in vivo 1 Day Protectant
row,SMILES,pest or weed control at 100 ppm
1,COc1ccnc(C(=O)NC2CC(C)(C)C(OC(=O)c3cccc(Cl)n3)C(C)(C)C2)c1O (stereo not drawn) [Compound 269],25 to 74%

# Same assay, conditions: Puccinia; 100 ppm spray, wheat, 24 hour protectant; control of fungal infection vs untreated plants; read-out: PUCCRT in vivo 1 Day Protectant
row,SMILES,pest or weed control at 100 ppm
1,COc1ccnc(C(=O)Nc2ccc(OC3CC(C)(C)OC(C)(C)C3)cc2)c1O [Compound 459],25 to 74%
2,COc1ccnc(C(=O)N[C@H]2COC(=O)[C@H](Cc3ccccc3)[C@@H](OC(C)=O)[C@H](C)OC2=O)c1O [Compound 385],25 to 74%
3,COc1ccnc(C(=O)N[C@H]2COC(=O)[C@H](Cc3ccccc3)[C@@H](OCC(C)C)[C@H](C)OC2=O)c1O [Compound 384],25 to 74%

# Tested on: Phytophthora infestans (PHYTIN)
# Assay: microbe, parasite or virus in culture
# Assay type: cell-based
# Details: Phytophthora infestans, read-out: PHYTIN in vitro Growth Inhibition
row,SMILES,inhibition at 25 ppm
1,COc1ccnc(C(=O)Nc2ccc(OC3CC(C)(C)OC(C)(C)C3)cc2)c1O [Compound 459],< 80%
2,COc1ccnc(C(=O)N[C@H]2COC(=O)[C@H](Cc3ccccc3)[C@@H](OC(C)=O)[C@H](C)OC2=O)c1O [Compound 385],< 80%
3,COc1ccnc(C(=O)NC2CC(C)(C)C(OC(=O)c3cccc(Cl)n3)C(C)(C)C2)c1O (stereo not drawn) [Compound 269],< 80%
4,COc1ccnc(C(=O)N[C@H]2COC(=O)[C@H](Cc3ccccc3)[C@@H](OCC(C)C)[C@H](C)OC2=O)c1O [Compound 384],< 80%

# Tested on: Stagonospora nodorum (Leptosphaeria nodorum—LEPTNO)
# Assay: In vitro fungal growth inhibition, Stagonospora nodorum (LEPTNO)
# Assay type: cell-based
# Details: Leptosphaeria; 25 ppm in growth medium; read-out: LEPTNO in vitro Growth Inhibition
row,SMILES,inhibition at 25 ppm
1,COc1ccnc(C(=O)Nc2ccc(OC3CC(C)(C)OC(C)(C)C3)cc2)c1O [Compound 459],< 80%
2,COc1ccnc(C(=O)N[C@H]2COC(=O)[C@H](Cc3ccccc3)[C@@H](OC(C)=O)[C@H](C)OC2=O)c1O [Compound 385],> 80%
3,COc1ccnc(C(=O)NC2CC(C)(C)C(OC(=O)c3cccc(Cl)n3)C(C)(C)C2)c1O (stereo not drawn) [Compound 269],< 80%
4,COc1ccnc(C(=O)N[C@H]2COC(=O)[C@H](Cc3ccccc3)[C@@H](OCC(C)C)[C@H](C)OC2=O)c1O [Compound 384],> 80%

# Tested on: Rhizoctonia solani (RHIZSO)
# Assay: microbe, parasite or virus in culture
# Assay type: cell-based
# Details: Rhizoctonia solani, read-out: RHIZSO in vitro Growth Inhibition
row,SMILES,inhibition at 25 ppm
1,COc1ccnc(C(=O)Nc2ccc(OC3CC(C)(C)OC(C)(C)C3)cc2)c1O [Compound 459],< 80%
2,COc1ccnc(C(=O)N[C@H]2COC(=O)[C@H](Cc3ccccc3)[C@@H](OC(C)=O)[C@H](C)OC2=O)c1O [Compound 385],< 80%
3,COc1ccnc(C(=O)NC2CC(C)(C)C(OC(=O)c3cccc(Cl)n3)C(C)(C)C2)c1O (stereo not drawn) [Compound 269],< 80%
4,COc1ccnc(C(=O)N[C@H]2COC(=O)[C@H](Cc3ccccc3)[C@@H](OCC(C)C)[C@H](C)OC2=O)c1O [Compound 384],< 80%

# Tested on: Ustilago maydis (USTIMA)
# Assay: microbe, parasite or virus in culture
# Assay type: cell-based
# Details: Mycosarcoma maydis, read-out: USTIMA in vitro Growth Inhibition
row,SMILES,inhibition at 25 ppm
1,COc1ccnc(C(=O)Nc2ccc(OC3CC(C)(C)OC(C)(C)C3)cc2)c1O [Compound 459],< 80%
2,COc1ccnc(C(=O)N[C@H]2COC(=O)[C@H](Cc3ccccc3)[C@@H](OC(C)=O)[C@H](C)OC2=O)c1O [Compound 385],< 80%
3,COc1ccnc(C(=O)NC2CC(C)(C)C(OC(=O)c3cccc(Cl)n3)C(C)(C)C2)c1O (stereo not drawn) [Compound 269],< 80%
4,COc1ccnc(C(=O)N[C@H]2COC(=O)[C@H](Cc3ccccc3)[C@@H](OCC(C)C)[C@H](C)OC2=O)c1O [Compound 384],< 80%

# Tested on: Phytophthora infestans—PHYTIN
# Assay: whole plant or invertebrate
# Assay type: in vivo
# Details: Phytophthora, in Solanum lycopersicum, 24 h, read-out: PHYTIN in vivo 1 Day Protectant
row,SMILES,pest or weed control at 100 ppm
1,COc1ccnc(C(=O)Nc2ccc(OC3CC(C)(C)OC(C)(C)C3)cc2)c1O [Compound 459],< 25%
2,COc1ccnc(C(=O)N[C@H]2COC(=O)[C@H](Cc3ccccc3)[C@@H](OC(C)=O)[C@H](C)OC2=O)c1O [Compound 385],25 to 74%
3,COc1ccnc(C(=O)NC2CC(C)(C)C(OC(=O)c3cccc(Cl)n3)C(C)(C)C2)c1O (stereo not drawn) [Compound 269],< 25%
4,COc1ccnc(C(=O)N[C@H]2COC(=O)[C@H](Cc3ccccc3)[C@@H](OCC(C)C)[C@H](C)OC2=O)c1O [Compound 384],< 25%

# Tested on: Erysiphe graminis—ERYSGT
# Assay: Powdery Mildew of Wheat, in vivo whole plant, 24 Hour Protectant
# Details: 100 ppm spray, wheat, 24 hour protectant; control of fungal infection vs untreated plants
row,SMILES,ERYSGT in vivo 1 Day Protectant
1,COc1ccnc(C(=O)N[C@H]2COC(=O)[C@H](Cc3ccccc3)[C@@H](OCC(C)C)[C@H](C)OC2=O)c1O [Compound 384],+ +

# Same assay, conditions: Erysiphe; 100 ppm spray, 24 hour protectant, wheat; control of fungal infection vs untreated plants; read-out: ERYSGT in vivo 1 Day Protectant
row,SMILES,pest or weed control at 100 ppm
1,COc1ccnc(C(=O)NC2CC(C)(C)C(OC(=O)c3cccc(Cl)n3)C(C)(C)C2)c1O (stereo not drawn) [Compound 269],< 25%

# Same assay, conditions: Erysiphe; 100 ppm spray, wheat, 24 hour protectant; control of fungal infection vs untreated plants; read-out: ERYSGT in vivo 1 Day Protectant
row,SMILES,pest or weed control at 100 ppm
1,COc1ccnc(C(=O)Nc2ccc(OC3CC(C)(C)OC(C)(C)C3)cc2)c1O [Compound 459],25 to 74%
2,COc1ccnc(C(=O)N[C@H]2COC(=O)[C@H](Cc3ccccc3)[C@@H](OC(C)=O)[C@H](C)OC2=O)c1O [Compound 385],< 25%

# Tested on: Magnaporthe grisea (Pyricularia oryzae—PYRIOR)
# Assay: microbe, parasite or virus in culture
# Assay type: cell-based
# Details: Pyricularia oryzae, read-out: PYRIOR in vitro Growth Inhibition
row,SMILES,inhibition at 25 ppm
1,COc1ccnc(C(=O)Nc2ccc(OC3CC(C)(C)OC(C)(C)C3)cc2)c1O [Compound 459],< 80%
2,COc1ccnc(C(=O)N[C@H]2COC(=O)[C@H](Cc3ccccc3)[C@@H](OC(C)=O)[C@H](C)OC2=O)c1O [Compound 385],< 80%
3,COc1ccnc(C(=O)NC2CC(C)(C)C(OC(=O)c3cccc(Cl)n3)C(C)(C)C2)c1O (stereo not drawn) [Compound 269],< 80%
4,COc1ccnc(C(=O)N[C@H]2COC(=O)[C@H](Cc3ccccc3)[C@@H](OCC(C)C)[C@H](C)OC2=O)c1O [Compound 384],> 80%

# Tested on: not given
# Assay: not given
# Details: not given
row,SMILES,melting point
1,COc1ccnc(C(=O)Nc2ccc(OC3CC(C)(C)OC(C)(C)C3)cc2)c1O [Compound 459],161 to 163 °C
2,COc1ccnc(C(=O)N[C@H]2COC(=O)[C@H](Cc3ccccc3)[C@@H](OC(C)=O)[C@H](C)OC2=O)c1O [Compound 385],194 to 196 °C
3,COc1ccnc(C(=O)NC2CC(C)(C)C(OC(=O)c3cccc(Cl)n3)C(C)(C)C2)c1O (stereo not drawn) [Compound 269],55 to 65 °C
4,COc1ccnc(C(=O)N[C@H]2COC(=O)[C@H](Cc3ccccc3)[C@@H](OCC(C)C)[C@H](C)OC2=O)c1O [Compound 384],172 to 174 °C

# Tested on: Leptosphaeria nodorum—LEPTNO
# Assay: Glume Blotch of Wheat, in vivo whole plant, 24 Hour Protectant
# Details: 100 ppm spray, wheat, 24 hour protectant; control of fungal infection vs untreated plants
row,SMILES,LEPTNO in vivo 1 Day Protectant
1,COc1ccnc(C(=O)Nc2ccc(OC3CC(C)(C)OC(C)(C)C3)cc2)c1O [Compound 459],+ +
2,COc1ccnc(C(=O)N[C@H]2COC(=O)[C@H](Cc3ccccc3)[C@@H](OC(C)=O)[C@H](C)OC2=O)c1O [Compound 385],+ +
3,COc1ccnc(C(=O)N[C@H]2COC(=O)[C@H](Cc3ccccc3)[C@@H](OCC(C)C)[C@H](C)OC2=O)c1O [Compound 384],+ +

# Same assay, conditions: Leptosphaeria; 100 ppm spray, 24 hour protectant, wheat; control of fungal infection vs untreated plants; read-out: LEPTNO in vivo 1 Day Protectant
row,SMILES,pest or weed control at 100 ppm
1,COc1ccnc(C(=O)NC2CC(C)(C)C(OC(=O)c3cccc(Cl)n3)C(C)(C)C2)c1O (stereo not drawn) [Compound 269],< 25%
